The text below walks through data of US7420043B2, “Reagents for detecting efavirenz” (priority 2003, dated 2008).

The test system of data set [1] is monoclonal antibody EFA 97.1. The data set can be described thus: Cross-reactivity assay (competitive ELISA, ED50 ratio). Conditions: ED50 of efavirenz divided by ED50 of the drug, times 100. It counts as binding, mouse. An excerpt:
Supernatants were subjected to serial dilutions and retested in the ELISA screen above omitting the competitive inhibition with free drug. The dilution providing for approximately a 50% reduction from the maximum OD was chosen for proceeding to cross-reactivity testing. This comprised repeating the preceding assay with the antibody at the chosen dilution and in the presence of varying concentrations of different drugs. FIG. 8 presents the results of such a determination.
In general terms: An ELISA detects its analyte on a solid surface through an enzyme-linked reagent.

The conditions of data set [2]: Physician's Desk Reference; cited from earlier work.
The next data set relates to HIV. Conditions: cited from earlier work.
For data set [3] the following is noted: cited from earlier work.

Where two headings read alike, the source gives them in different places.

In the case of `CC(C)(C)NC(=O)[C@@H]1C[C@@H]2CCCC[C@@H]2CN1C[C@@H](O)[C@H](Cc1ccccc1)NC(=O)[C@H](CC(N)=O)NC(=O)c1ccc2ccccc2n1` [saquinavir], the “% Cross-reactivity” value in data set [1] came out at 0%.

In the case of `COC(=O)N[C@H](C(=O)N[C@@H](Cc1ccccc1)[C@@H](O)CN(Cc1ccc(-c2ccccn2)cc1)NC(=O)[C@@H](NC(=O)OC)C(C)(C)C)C(C)(C)C` [atazanavir], the “% Cross-reactivity” value in data set [1] is given as 0%.

On to `Cc1cn([C@H]2C[C@H](N=[N+]=[N-])[C@@H](CO)O2)c(=O)[nH]c1=O` [3′-azido-3′-deoxythymidine], for which the “% Cross-reactivity” value in data set [1] was found to be 0%.

Take `O=C1Nc2ccc(Cl)cc2[C@@](C#CC2CC2)(C(F)(F)F)O1` [efavirenz]: in data set [2], the peak levels was 12.9 µM. Moreover, the “virological failure, % of patients” value in the data set with HIV (patients with low plasma levels of efavirenz, <1000 μg/L, 85 total patients) is 50%. Further, the “virological failure, % of patients” value in the data set with HIV (plasma levels 1000-4000 μg/L or more than 4000 μg/L) is recorded as 18-22%. Also, the “% Cross-reactivity” value in data set [1] was 100%. The “CNS toxicity frequency, high versus mid plasma levels” value in data set [3] (>4000 μg/L compared with 1000-4000 μg/L) is on record as “approximately three times more frequent”. In data set [3] (patients receiving efavirenz), the “patients discontinuing therapy because of severity or persistence of CNS side effects” value is recorded as “about 4%” and the “patients reporting CNS side effects (dizziness, hallucinations, nightmares, insomnia)” value is given as 20-40%.

For `Cc1c(O)cccc1C(=O)N[C@@H](CSc1ccccc1)[C@H](O)CN1C[C@H]2CCCC[C@H]2C[C@H]1C(=O)NC(C)(C)C` [nelfinavir], the “% Cross-reactivity” value in data set [1] is on record as 0%.

In the case of `Cc1ccnc2c1NC(=O)c1cccnc1N2C1CC1` [nevirapine], the “% Cross-reactivity” value in data set [1] came to 0%.

For `Cc1cn([C@H]2C=C[C@@H](CO)O2)c(=O)[nH]c1=O` [2′,3′-didehydro-3′-deoxythymidine], the “% Cross-reactivity” value in data set [1] worked out at 0%.

For `CC(C)(C)NC(=O)[C@@H]1CN(Cc2cccnc2)CCN1C[C@@H](O)C[C@@H](Cc1ccccc1)C(=O)N[C@H]1c2ccccc2C[C@H]1O` [indinavir], the “% Cross-reactivity” value in data set [1] came to 0%.

In the case of `Cc1cccc(C)c1OCC(=O)N[C@@H](Cc1ccccc1)[C@@H](O)C[C@H](Cc1ccccc1)NC(=O)[C@H](C(C)C)N1CCCNC1=O` [lopinavir], the “% Cross-reactivity” value in data set [1] is on record as 0%.

`CC(C)Nc1cccnc1N1CCN(C(=O)c2cc3cc(NS(C)(=O)=O)ccc3[nH]2)CC1` [delaviridine]: in data set [1], the “% Cross-reactivity” value came to 0%.

Take `CC(C)CN(C[C@@H](O)[C@H](Cc1ccccc1)NC(=O)O[C@H]1CCOC1)S(=O)(=O)c1ccc(N)cc1` [amprenavir]: the “% Cross-reactivity” value in data set [1] is 0%.

With `CC(C)c1nc(CN(C)C(=O)N[C@H](C(=O)N[C@@H](Cc2ccccc2)C[C@H](O)[C@H](Cc2ccccc2)NC(=O)OCc2cncs2)C(C)C)cs1` [ritonavir], the “% Cross-reactivity” value in data set [1] worked out at 0%.
